Assay results published in patent US20180360705A1, “TOPICAL DELIVERY SYSTEM FOR ACTIVE INREDIENTS” (L'OREAL, priority 2015, published 2018).

Experiment: Maximum solubility of active ingredient in oils
Assay type: physicochemical
Conditions: room temperature, atmospheric pressure
Description: The maximum solubility of the active ingredients in the oil phase can be measured in any way which is known in the art. For example, an excess amount of the active ingredient is dissolved in the oil and mixed vigorously at elevated temperature, and then this sample is cooled down to room temperature and maintained for several hours to days. This mixture is centrifuged to separate an oil phase and the concentration of the active ingredient in the separated oil phase is measured using UV spectroscopy.
In the representative examples of the active ingredients of the present invention, the maximum solubilities of phenylethyl resorcinol and 4-(tetrahydro-2H-pyran-4-yl) benzene-1,3-diol in various oils measured at room temperature and under atmospheric pressure are shown below.

maximum solubility in oil (Isododecane): 0.043% | maximum solubility in oil (Isopropyl Lauroyl Sarcosinate): 42% | maximum solubility in oil (Isopropyl Myristate): 36% | maximum solubility in oil (Sesamum Indicum (Sesame) Seed Oil): 23%
Compound: CC(c1ccccc1)c1ccc(O)cc1O (stereo not shown) [Phenylethyl Resorcinol]
